# Values of other authors, collected in US20140161813A1, “METHODS FOR THE DIAGNOSIS, TREATMENT AND MONITORING OF CANCER” (priority 2012, published 2014).
# Assays:
# [1] = tested on: human tumor 60 cell line screen; details: colon, ovarian and breast carcinomas and central nervous system tumors
# [2] = tested on: spontaneous tumors in dogs (thyroid carcinoma, malignant peripheral nerve sheath tumor, anal gland adenocarcinoma, spinal meningioma)
substance,measurement,setting,value
nitrosylcobalamin [NO-Cbl],"antigrowth effects, tumor types most responsive",[1],"colon, ovarian and breast carcinomas as well as central nervous system tumors were most responsive"
same,systemic or local toxicity,[2]; case study in dogs with spontaneous tumors,no evidence of systemic or local toxicity
same,dogs in which the tumor was completely eliminated,"[2]; extended follow-up, daily NO-Cbl treatment ranging in duration from 6 to 15 months",3 of 4
same,decrease in tumor size,"[2]; remaining 1 of 4 dogs, daily NO-Cbl treatment over the course of 6 months",77%
